US8816102B2, “Compounds” (Givaudan S.A., priority 2009, dated 2014)

Key:
Parameters in all cases: species or system human
[1] = Sensory panel tasting of 0.3% NaCl solution with and without compound; conditions: 0.3% NaCl and 10 ppm compound; reference solution A (0.3% NaCl): salty; trained panel of 20 women
Method: (§1) Two solutions were prepared:
A a solution of 0.3% NaCl
B a solution of 0.3% NaCl and 10 ppm Example 1 compound
(§2) The samples were tasted by a trained sensory panel composed of 20 women aged between 30 and 60.
B a solution of 0.3% NaCl and 10 ppm Example 5 compound.

[2] = Use in tomato soup, tasted by flavourists; conditions: tomato soup containing 10 ppm compound; 4 flavourists
Method: A tomato soup mix was prepared from 9.4 g of sodium chloride, 1 g of mono sodium glutamate, 0.08 g ribonucleotides (ex yeast), 32 g of tomato powder (ex Spreda), 25.1 g of glucose, 21 g of starch (Ultrasperse 5 ex National Starch), 5 g of palm fat powder, 3 g of yeast powder, 1 g on onion powder, 0.15 g of carrot powder, 0.05 g of ground white pepper, 0.3 g celery extract powder, 0.05 g of ground laurel leaf powder, and 1.85 g of sucrose. 25 G of the well mixed ingredients was added to 250 g of boiling water and stirred until completely dissolved.
The reference soup was compared with a batch of the same soup containing 10 ppm of N-(2-hydroxyethyl)-2-(benzo[1,3]dioxol-5-yl)-2-oxoacetamide as prepared in example 2.

[3] = Use in potato chips, tasted by trained sensory panel
Method: Plain potato chips were prepared.
One part was flavoured with 1.2% sodium chloride (sample A)
One part was flavoured with 1.2% sodium chloride and 0.3% MSG (sample b)
One part was flavoured with 1.2% sodium chloride and 2.5 ppm N-(4-heptyl)-2-(benzo[1,3]dioxol-5-yl)-2-oxo-acetamide as prepared in example 3 (sample C).
as §2

[4] = Use in tomato ketchup, tasted by flavourists; conditions: 4 flavourists
Method: A tomato ketchup was prepared from 19% tomato paste (28-30% dry weight), 8% of vinegar (15%), 3% of sodium chloride, 20% of sugar and 50% of water.
To one half of the batch was added 2 ppm of N-(4-heptyl) 2-(4-hydroxy-3-methyxophenol)-2-oxoacetamide (Example 5)
A batch of tomato ketchup was prepared as described in Example 12. To one half of the batch was added 20 ppm N-(4-hepthyl) 4-hydroxy-3-methoxy-mandelic amide as prepared in Example 7.

[5] = Sensory panel tasting of 0.3% NaCl and 0.03% MSG solution with and without compound; conditions: 0.3% NaCl, reference solution A: salty, umami, trained panel of 20 women
Method: as §1
A a solution of 0.3% NaCl and 0.03% MSG
B a solution of 0.3% NaCl and 0.03% MSG and 10 ppm Example 6 compound.
as §2
A a solution of 0.3% NaCl, 0.03% MSG
B a solution of 0.3% NaCl, 0.03% MSG and 10 ppm N-heptyl-2-oxo-3-phenylpropionamide as prepared in example 9.
B a solution of 0.3% NaCl, 0.03% MSG and 1 ppm N-(4-heptyl)-2-oxo-3-phenylpropionamide as prepared in example 10.
B a solution of 0.3% NaCl, 0.03% MSG and 1 ppm N-heptyl 3-methoxy-4-hydroxy-mandelic acid as prepared in Example 8.

In the case of `O=C(NCCO)C(=O)c1ccccc1` [Example 1, N-(2-hydroxyethyl)-2-oxo-2-phenylacetamide], the “taste description of solution B” value [1] is reported as “more salty, salivating”.
With `O=C(NCCO)C(=O)c1ccc2c(c1)OCO2` [Example 2, 2-(benzo[d][1.3]dioxol-5-yl)-N-(2-hydroxyethyl)-2-oxoacetamide] the “taste of test soup compared with base soup” value [2] was “more umami, was more lingering and was more complex”.
With `CCCC(CCC)NC(=O)C(=O)c1ccc2c(c1)OCO2` [Example 3, 2-(benzo[d][1,3]dioxol-5-yl)-N-(heptan-4-yl)-2-oxoacetamide] the “taste description of potato chips sample C” value ([3]; 1.2% sodium chloride and 2.5 ppm compound, sample A (1.2% sodium chloride): salty) was “salty, umami, long lasting, savoury, bouillon”, the panel preference ([3]; sample C (1.2% sodium chloride and 2.5 ppm compound) versus samples A and B) was “preferred over the other two samples” and the off-note observed ([3]; sample C, 1.2% sodium chloride and 2.5 ppm compound) was “slight bitter off-note”.
In the case of `CCCCCCCNC(=O)C(=O)c1ccc(O)c(OC)c1` [Example 5, N-heptyl-2-(4-hydroxy-3-methoxyphenyl)-2-oxoacetamide], the “taste description of solution B” value [1] is reported as “more salty, salivating, lingering” and the “taste of test ketchup compared with base ketchup” value ([4]; tomato ketchup with 2 ppm compound) is reported as “clearly more umami, more sweet and more full/complex”.
In the case of `CC(=O)C(=O)NCCO` [Example 6, N-(2-hydroxyethyl)-2-oxopropanamide], the “taste description of solution B” value ([5]; 0.03% MSG and 10 ppm compound) is reported as “more salty, more umami”.
With `CCCC(CCC)NC(=O)C(O)c1ccc(O)c(OC)c1` (stereo not shown) [Example 7, N-(heptan-4-yl)-2-hydroxy-2-(4-hydroxy-3-methoxyphenyl)acetamide] the “taste of test ketchup compared with base ketchup” value ([4]; tomato ketchup with 20 ppm compound) was “more umami, more bouillon-like and more full/complex”.
In the case of `CCCCCCCNC(=O)C(O)c1ccc(O)c(OC)c1` (stereo not shown) [Example 8, N-heptyl-2-hydroxy-2-(4-hydroxy-3-methoxyphenyl)acetamide], the “taste description of solution B” value ([5]; 0.03% MSG and 1 ppm compound) is reported as “salty, more umami, slightly pungent”.
In the case of `CCCCCCCNC(=O)C(=O)Cc1ccccc1` [Example 9, N-heptyl-2-oxo-3-phenylpropanamide], the “taste description of solution B” value ([5]; 0.03% MSG and 10 ppm compound) is reported as “salty, stronger umami, more bouillon-like”.
With `CCCC(CCC)NC(=O)C(=O)Cc1ccccc1` [Example 10, N-(heptan-4-yl)-2-oxo-3-phenylpropanamide] the “taste description of solution B” value ([5]; 0.03% MSG and 1 ppm compound) was “salty, more umami, more bouillon-like, slightly tingling”.
For `N[C@@H](CCC(=O)O)C(=O)[O-].[Na+]` [MSG, monosodium glutamate, reference compound], the “taste description of potato chips sample B” value ([3]; 1.2% sodium chloride and 0.3% MSG) was “salty and umami”.
